# Test results taken from ChEMBL document CHEMBL1153259, “Spiroepoxycyclohexadienone dimers: cytotoxic bisalkylating agents” (Bioorg Med Chem Lett, 1993).
# Legend:
# Assay type in all cases: functional, cell-based
# A549 [1] = assay: Compound was tested for cytotoxicity on A549 lung adenocarcinoma cell line using a proliferation assay (MTT reduction); conditions: Homo sapiens
# HT-29 = assay: Compound was tested for cytotoxicity on HT-29 colon cancer cell line using a proliferation assay (MTT reduction); conditions: Homo sapiens
# L1210 = assay: Compound was tested for cytotoxicity on L1210 leukemia cell line using a proliferation assay (MTT reduction); conditions: Mus musculus
# A549 [2] = assay: Compound was tested for cytotoxicity on A549 lung adenocarcinoma cell line using a proliferation assay (MTT reduction).; conditions: Homo sapiens
compound,measurement,setting,value
COC1=CC2C3C=CC(C2[C@@]2(CO2)C1=O)[C@@]1(CO1)C3=O (stereo partly specified),IC50,A549 [1],17.5 µM
same,IC50,HT-29,5.8 µM
same,IC50,L1210,> 36 µM
COc1cccc2c1C(=O)c1c(O)c3c(c(O)c1C2=O)C[C@@](O)(C(=O)CO)C[C@@H]3O[C@H]1C[C@H](N)[C@H](O)[C@H](C)O1 [DOXORUBICIN],IC50,A549 [1],0.1 µM
same,IC50,HT-29,0.12 µM
same,IC50,L1210,0.04 µM
O[C@@H]1CCC2C3C=CC(C2[C@@]12CO2)[C@@]1(CO1)[C@@H]3O (stereo partly specified),IC50,A549 [1],18 µM
same,IC50,HT-29,6 µM
same,IC50,L1210,19.5 µM
O=C1C2C=CC(C3C2C=CC(=O)[C@]32CO2)[C@@]12CO2 (stereo partly specified),IC50,A549 [2],0.75 µM
same,IC50,HT-29,0.3 µM
same,IC50,L1210,0.18 µM
COC1=CC2C(C3C=CC2(OC)C(=O)[C@]32CO2)[C@@]2(CO2)C1=O (stereo partly specified),IC50,A549 [1],1.2 µM
same,IC50,HT-29,3.6 µM
same,IC50,L1210,1 µM
O[C@@H]1C=CC2C3C=CC(C2[C@@]12CO2)[C@@]1(CO1)[C@@H]3O (stereo partly specified),IC50,A549 [1],31.5 µM
same,IC50,HT-29,17 µM
same,IC50,L1210,22.5 µM
O=C1C2C=CC(C3C2C2C/C(=N\Cc4ccccc4)[C@]3(O)CN2Cc2ccccc2)[C@@]12CO2 (stereo partly specified),IC50,A549 [1],> 28 µM
same,IC50,HT-29,27 µM
same,IC50,L1210,> 28 µM
